The text below walks through data of patent US7160898B2, “Pharmacological treatment for sleep apnea” (Board of Trustees of The University of Illinois, priority 2002, dated 2007).

The test system of one series is cardiovascular variables. Briefly: Radiotelemetry of blood pressure and heart period after GR38032F (Example 2). Type of series: in vivo, rat (Sprague-Dawley). Particulars: 1 mg/kg i.p. The text has this: After surgery, all animals were allowed to recover for one week before being subjected to another surgery that involved implantation of a radiotelemetry transmitter (TA11-PXT, Data Sciences International, St. Paul, Minn.) for monitoring blood pressure (BP) and heart period (HP), estimated as pulse interval. After the animals were anesthetized (as described above), the hair from the subxiphoid space to the pelvis was removed. The entire area was scrubbed with iodine and rinsed with alcohol and saline. A 4–6 cm midline abdominal incision was made to allow good visualization of the area from the bifurcation of the aorta to the renal arteries. A retractor was used to expose the contents of the abdomen and the intestine was held back using saline moistened gauze sponges. The aorta was dissected from the surrounding fat and connective tissues using sterile cotton applicators. A 3-0 silk suture was placed beneath the aorta and traction was applied to the suture to restrict the blood flow. Then the implant (TA11-PXT) was held by forceps while the aorta was punctured just cranial to the bifurcation using a 21-gauge needle bent at the beveled end. The tip of the catheter was inserted under the needle using the needle as a guide until the thin-walled BP sensor section was within the vessel. Finally, one drop of tissue adhesive (Vetbond®, 3M, Minneapolis, Minn.) was applied to the puncture site and covered with a small square of cellulose fiber (approximately 5 mm^2) so as to seal the puncture after catheter insertion. The radio implant was attached to the abdominal wall by 3-0 silk suture, and the incision was closed in layers. After the second surgery, animals were again allowed a one week recovery period prior to administration of the serotonin receptor antagonist and subsequent physiological recording.
Physiological parameters (see below) from each animal were recorded on 2 occasions in random order, with recordings for an individual animal separated for at least 3 days. Fifteen minutes prior to each recording each animal received a systemic injection (1 ml/kg intraperitoneal bolus injection) of either saline (control) or 1 mg/kg of ondansetron (GR38032F; 1,2,3,9-tetrahydro-9-methyl-3-[(2-methylimidazol-1-yl)methyl]carbazole-4-one, hydrochloride, dihydrate; Glaxo Wellcome, Inc., Research Triangle Park, N.C.). Polygraphic recordings were made from hours 10:00–16:00.
Similar software (Experimenters' Workbench; Datawave Technologies, Longmont, Colo.) was employed to analyze the blood pressure waveform; for each beat of each recording, systolic (SBP) and diastolic (DBP) blood pressures and pulse interval were measured. The pulse interval provided a beat by beat estimate of HP. Mean BP (MBP) was estimated according to the weighted average of SBP and DBP for each beat: MBP=DBP+(SBP−DBP)/3. The parameters for each beat were also classified according to the sleep/wake state and recording hour during which they occurred.

The next series relates to sleep/wake architecture. In words: Sleep/wake architecture after 5-HT and GR38032F (Example 3). The format is in vivo, rat (Sprague-Dawley). Particulars: i.p. The protocol: Sleep and waking states were assessed using the biparietal EEG and nuchal EMG signals on 10-second epochs as described by Bennington et al. [Sleep, 17:28–36 (1994)]. This software discriminated wakefulness (W) as a high frequency low amplitude EEG with a concomitant high EMG tone, NREM sleep by increased spindle and […] activity together with decreased EMG tone, and REM sleep by a […] activity and an absence of EMG tone. Sleep efficiency was measured as the percentage of total recorded epochs staged as NREM or REM sleep.
Each animal was recorded on four occasions, with recordings for an individual animal separated by at least three days. Fifteen minutes prior to each recording, each animal received (via intraperitoneal injection), in random order, one of the following: (a) saline solution (control); (b) 0.79 mg/kg serotonin; (c) 0.1 mg/kg GR38032F plus 0.79 mg/kg serotonin; or (d) 0.1 mg/kg GR38032F. For the GR38032F+serotonin test group, 0.1 mg/kg GR38032F was administered at time 09:30 followed by 0.79 mg/kg serotonin at time 09:45. Polygraphic recordings were made from 10:00–16:00.
Respiration BP, EEG, and EMG data were determined and recorded via the experimental procedure as specifically set forth above in Example 2. As in Example 2, sleep apneas, defined as cessation of respiratory effort for at least 2.5 s, were scored for each recording session and were associated with the stage in which they occurred: NREM or REM sleep. The duration requirement of 2.5 s represents at least two “missed” breaths, which is analogous to a 10-s apnea duration requirement in humans.
The effects of sleep stage (NREM vs REM) and injection (control vs. administration of either serotonin alone, GR38032F+serotonin, or GR38032F alone) on apnea indexes, respiratory pattern, BP, and HP were tested using analysis of variance (ANOVA) with repeated measures. Multiple comparisons were controlled using Fisher's protected least-significance difference (PLSD). One-way ANOVA was also performed by nonparametric (Kruskal-Wallis) analysis. Conclusions using parametric and nonparametric ANOVA were identical in all cases.

Series [1] relates to 5-hydroxytryptamine receptors. Particulars: anesthetized animals; cited from earlier work.
Where [2] appears, read: percent recording time, 6 hours, 5-HT 0.79 mg/kg, GR38032F 0.1 mg/kg, mean ± SE.

Each structure is given as a SMILES string.

`Cc1nccn1CC1CCc2c(c3ccccc3n2C)C1=O.Cl.O.O` (stereo not drawn) [GR38032F, 1,2,3,9-tetrahydro-9-methyl-3-[(2-methylimidazol-1-yl)methyl]carbazole-4-one, hydrochloride, dihydrate]: in the series on cardiovascular variables (NREM sleep, mean ± SE), the “HP, NREM” value stood at 189 ± 3 ms and the “Mean BP, NREM” value is given as 112 ± 17 mm Hg. Further, in the series with cardiovascular variables (REM sleep, mean ± SE), the “HP, REM” value was 190 ± 3 ms and the “Mean BP, REM” value was determined as 110 ± 17 mm Hg. The “effect on cardiovascular variables (MBP and HP during W, NREM, REM sleep)” value in the series with cardiovascular variables (p>0.1 for each variable) is listed as “no effect on any cardiovascular variable”. Besides, in the series with cardiovascular variables (wakefulness, mean ± SE), the “HP, W” value was 183 ± 3 ms and the “Mean BP, W” value is 113 mm Hg. The “effect on sleep architecture” value with sleep/wake architecture (6 hours of polygraphic recording) is “had no effect on sleep architecture”. In addition, in the series on sleep/wake architecture (setting [2]), the “% NREM” value was found to be 63.4 ± 5.7%, the “% REM” value is on record as 7.3 ± 2.3% and the “% Wakefulness” value worked out at 28.8 ± 6.4%. Besides, the “antagonism of agonist-induced transient apnea” value in series [1] was “significantly antagonized”.
